Our source for the IC50 values is US5635525A, “Benzimidazole derivatives as angiotensin II receptor antagonists, pharmacticals, and treatment of hypertension therewith” (Hoechst Aktiengesellschaft, priority 1991, dated 1997).

The experiment concerns the target angiotensin II receptor. The experiment in a line: displacement of 125I- or 3H-angiotensin II from receptor preparations from various organs (liver, lung, adrenal gland, brain etc.). The following applies: "according to the abovementioned process"; which of the two binding methods is not stated. The method, then: Bound and free radioligand are then separated by filtration through micro glass fiber filters (GF51, Schleicher & Schull) on a cell collector (SKATRON).
By measurement of the receptor-bund radioactivity on the filters by means of a beta spectrometer or gamma spectrometer, the degree of displacement of the radioligand from the receptor by the test compounds is determined.
Compound `CCCCc1nc2cccc(C(=O)O)c2n1Cc1ccc2c(Cl)c(C(=O)O)sc2c1` [Example 1, 2-n-Butyl-1-[(2-carboxy-3-chlorobenzo[b]thiophen-6-yl)-methyl]-1H-benzimidazole-7-carboxylic acid] came in with a half-inhibitory concentration (IC50) of 78 nM.
With “2-n-Butyl-3-[(2'-allylaminocarbonylaminosulfonylbiphenyl-4-yl)-methyl]-3H-imidazo-[4,5-b]/[5,4-b]pyridine [Example 27]” the figure was 1.1 nM.
`CCCCc1nc2cccc(C(=O)O)c2n1Cc1ccc(-c2ccccc2S(=O)(=O)NC(=O)OCC)cc1` [Example 19, 2-n-Butyl-1-[(2'-ethoxycarbonylaminosulfonylbiphenyl-4-yl)methyl]-1H-benzimidazole-7-carboxylic acid] displayed an IC50 of 0.74 nM.
With `C=CCOC(=O)N(C(=O)OCC=C)S(=O)(=O)c1ccccc1-c1ccc(Cn2c(CC)nc3c(C)cc(C)nc32)cc1` [Example 15] the figure was 0.8 nM; with `CCNC(=O)NS(=O)(=O)c1ccccc1-c1ccc(Cn2c(CC)nc3c(C)ccnc32)cc1` [Example 31, 2-Ethyl-3-[(2'-ethylaminocarbonylaminosulfonylbiphenyl-4-yl)methyl]-7-methyl-imidazo[4,5-b]pyridine], 0.48 nM; with `CCCNC(=O)NS(=O)(=O)c1ccccc1-c1ccc(Cn2c(CC)nc3c(C)cc(C)nc32)cc1` [Example 51], 1.8 nM.
With `CCCCc1nc2cccc(C(=O)O)c2n1Cc1ccn2c(C(=O)O)c(-c3ccccc3)nc2n1` [Example 3, 2-n-Butyl-1-[(3-carboxy-2-phenylimidazo[1,2-a]pyrimidin-7-yl)methyl]-1H-benzimidazole-7-carboxylic acid] the figure was 149 nM; with `CCCCc1nc2cccc(C(=O)O)c2n1Cc1ccn2c(C(=O)O)c(-c3ccccc3)nc2c1` [Example 2, 2-n-Butyl-1-[(3-carboxy-2-phenylimidazo[1,2-a]pyridin-7-yl)methyl]-1H-benzimidazole-7-carboxylic acid], 65 nM.
